Assay results from article PMC7890489, “Study on pharmacological properties and cell absorption metabolism of novel daidzein napsylates” (Royal Society Open Science, 2021).
Converted amounts (≈) assume the structure as drawn. “And” between values parts separate entries of the source, which are not always exact repeats. Equal values may be shown once. Read-outs that look alike come from different tables or passages of the source.

Legend:
[1] = water with a pH of 7.8; cited from earlier work
[2] = Solubility in water, methanol, cyclohexane and ethyl acetate by HPLC; format: physicochemical
Experimental: (§1) Mobile phase: acetonitrile-methanol (1 : 1); flow rate: 1.0 ml min^−1; injection volume: 20 µl; wavelength: 230 nm or 254 nm; column temperature: 25°C.
Five millilitres of water, methanol, cyclohexane and ethyl acetate was added to test tubes, and then samples (DD4 or DD5) were added. These solutions were shaken at constant temperature (37 ± 0.1)°C for 48 h. The supernatant was taken to determine its solubility with HPLC [14]. Solutions of tested sample beyond the linear concentration range were diluted with methanol for determination.

[3] = Apparent lipid-water (n-octanol/water) partition coefficient by HPLC; format: physicochemical; parameters: key: —: Cannot be detected; conditions: for lgP: 37 °C, HPLC of aqueous phase; for apparent lipid-hydro partition coefficient found: HPLC
Experimental: as §1
DD4 (5.1 mg) was dissolved in 50 ml of water-saturated n-octanol solution to prepare a solution with a concentration of 102 mg l^−1. Solution (2 ml) and water-saturated n-octanol solution (2 ml) were added to a plugged 10 ml tube. The prepared sample solution was placed in a shaker and shaken to equilibrium overnight in the dark at constant temperature (37 ± 0.1)°C. The lower aqueous phase was taken and analysed by HPLC after centrifugation at a speed of 3000 r min^−1 for 10 min. The drug concentration in the aqueous phase (ρw) was calculated via the standard curve according to the peak area. DD5 (4.5 mg) was dissolved in 50 ml of water-saturated n-octanol solution to prepare a solution with a concentration of 90 mg l^−1. Other methods were the same as those for DD4 [14].

[4] = test system: human aortic vascular smooth muscle cells (HAVSMCs); test: Drug absorption in human aortic vascular smooth muscle cells (HPLC of cell supernatant); format: in vitro ADME; conditions: for value (drug concentration in cell supernatant): dosing DD4 171, DD5 120 ug/mL; for maximum cell absorption rate relative to DAI: compared with DAI; for absorptivity (maximum absorption rate): maximum (at 1 h)
Experimental: (§2) HAVSMCs were obtained from resuscitation in cryopreservation tubes. HAVSMCs at passages 3–10 were seeded at a density of 10^5 in 6-well plates, 2 ml per well. The cells were cultured at 37°C in a 5% carbon dioxide incubator for 24 h to adhere to the cell wall; cells were cultured in serum-free DMEM for 24 h. The cells were synchronized, the supernatant was carefully aspirated and different concentrations of drug solution were added to the DMEM culture medium containing 10% serum. Equal amounts of DMEM culture medium without drugs were added to the blank group. Each group was set up in triplicate and further cultured. The cultures were terminated at 0.5, 1, 6, 12, 24 or 48 h. Cell culture supernatants were collected and stored at −80°C for further analysis.
Cell supernatants were thawed at room temperature and vortexed for 1 min. To 50 µl of the cell supernatant, 50 µl of methanol was added and the mixtures were mixed uniformly by eddy current. Ethyl acetate (1 ml) was added to the mixture and vortexed for 3 min. Ethyl acetate was separated by cooled centrifugation at 3000 r min^−1 and dried with nitrogen, and the residue was dissolved in 500 µl of methanol before injection for analysis.
Mobile phase: methanol-phosphoric acid solution (0.4%) (1 : 1); flow rate: 0.5 ml min^−1; injection volume: 10 µl; wavelength: 230 nm or 254 nm; column temperature 25°C.
Cell supernatants were thawed and vortexed for 1 min. Drug-added supernatant (50 µl) was treated by the same method as the pre-treatment of cell samples described in §4.2.
The absorption and utilization rates of DD4 and DD5 were calculated by the formula (6.1), with the reduction of drug concentration in the cell culture medium taken as the absorption amount of drug by cells. The initial drug concentration was c0, and the concentration in the cell supernatant at other time points is denoted as c. […] With increasing time, the cell absorption rate of the drug was maintained at about 60%. The main reason for the differences in absorption of DD4 and DD5 might be the length of the substituent group (methyl, ethyl) on the 7-position:6.1 absorption rate=c0−c/c0×100%.

[5] = test system: human aortic vascular smooth muscle cells (HAVSMCs); test: Cell metabolism in HAVSMCs by HPLC-MS; format: in vitro ADME; conditions: for metabolite identified (chemical name): HAVSMC lysate, 24 h incubation, HPLC-MS negative ion mode; for metabolites found in cell lysate: HAVSMCs incubated 24 h, HPLC-MS, also found in supernatant; for redox products in HAVSMCs: preliminary analysis of metabolic components
Experimental: as §2
Mobile phase: methanol-formic acid (1 : 1); flow rate: 0.5 ml min^−1; injection volume: 10 µl; wavelength: 254 nm; column temperature: 25°C.
A triple quadrupole tandem precision mass spectrometer (Agilent 6430) with an […] source and a negative ion mode was used for precise determination. The full mass spectrum data were obtained in the range of m/z 50–1000. The optimal mass spectrum parameters were as follows: the capillary voltage was 4.0 kV; the injection cone voltage was 35 V; the desolvation gas flow (N2) rate was 900 l h^−1; the injection cone gas flow (N2) rate was 50 l h^−1; the desolvation temperature was 350°C; the ion source temperature was 150°C; the collision gas in collision induced dissociation (CID) mode was helium with high purity; the inlet pressure was set at 40 psi; the CID collision energy of the standard was 5–35 eV and the cracking voltage was 135 V.
The cell supernatant was thawed and vortexed for 0.5 min. Cell supernatant (50 µl) and […] (50 µl) were added to a 2 ml centrifuge tube and vortexed for 3 min. Ammonium dihydrogen phosphate (100 µl, 0.4%) and 1 ml of ethyl acetate were added, and the sample was vortexed for 3 min. The mixture was centrifuged at 3000 r min^−1 for 10 min. The supernatant (95 µl) was aspirated and dried by N2 flow. […] (500 µl) was added and the sample was vortexed for 0.5 min. After filtration over a 0.45 µm organic membrane, HPLC-MS analysis was carried out.
Cells from the −80°C stock were thawed at room temperature, and 1 ml of thawed cell lysate was added into each well of a 6-well plate. From each group, 0.5 ml of cell lysate was taken; 50 µl of […], 100 µl of ammonium dihydrogen phosphate (0.4%) and 1 ml of ethyl acetate were added and samples were vortexed for 3 min. Lysate (95 µl) was aspirated and dried by N2 flow. […] (500 µl) was added and samples were vortexed for 0.5 min. After filtration over a 0.45 µm organic membrane, HPLC-MS analysis was carried out.

[6] = test system: vascular smooth muscle cells; test: Cytotoxicity by MTT assay; format: cell-based; conditions: 300 ug/mL
Description: […] 2) Please list the full name of “HAVSMCs”at the first time it appears.
We have listed the full name of “HAVSMCs” as its first appearance in the abstract of […]
[…] 3) Please number the carbon atoms of the compounds.
[…] 4) Line 19-36: The abstract can reflect all aspects of the work, but it is a bit long and too detailed. The authors should rephrase the abstract for a more concise […]
We have rewritten the section of abstract and tried to make it as concise as possible.
[…] 5) As far as I'm aware, daidzein as a biologically active natural product has been used for curing angiocardiopathy. But whether the synthesized daidzeinnapsylates have significant toxic side effects remain unknown. So, in vitro cytotoxicity […]
A549, HeLa cells) need be performed.
The cytotoxicity of DD4 and DD5 was determined by MTT assay in our lab before […]
the two compounds was less than 10% at the concentration of 300 ug/mL. It is considered that the compound is not toxic to vascular smooth muscle cells at this concentration. Therefore, the dosing concentrations of DD4 and DD5 were 171 and 120 ug/mL, respectively, to investigate the absorption and metabolism of drugs by […]
6)Please attach the 1H-NMR specturm of DD4 and DD5 in supporting information;

[7] = Solubility in water, methanol, cyclohexane and ethyl acetate by HPLC; format: physicochemical; conditions: organic solvent or mixture, thermodynamic from solid, head: hexane (text: cyclohexane), 37 °C, shaken 48 h
[8] = parameters: method as in ref 23 = [23]; 23 Zhang ZT , Liu QG , Liu XH , Yang BL , Duan YF , Gao ZW , Yu KB 2002 Synthesis, crystal structure and biological activity of monomethylated daidzein sulfonates . Acta Chim. Sinica 60 , 1846 – 1853; conditions: compared with DAI; cited from earlier work
[9] = cited from earlier work
[10] = parameters: key: —: Cannot be detected; conditions: DAI ref 14; cited from earlier work
[11] = parameters: method as in ref 9 = [9]; 9 Chou F 2005 Pharmacokinetics of daidzein and its precursors . Shenyang, People's Republic of China : Shenyang Pharmaceutical University .; conditions: rats, intragastric administration of DAI solution; cited from earlier work
[12] = at pH 7.4, 410 K, DAI ref 16, cited from earlier work
[13] = organic solvent or mixture, thermodynamic from solid, methanol, 37 °C, shaken 48 h, HPLC, read-out: solubility methanol
[14] = thermodynamic from solid, water, 37 °C, shaken 48 h, HPLC, read-out: solubility water
[15] = water, Table 5, read-out: solubility in water

solubility at 48 h [2, 13] [µg/mL] | solubility at 48 h [2, 14] [µg/mL] | solubility in water ([2]; water, 37 °C) | solubility at 48 h [2, 15] [µg/mL] | lgP [3] | apparent lipid-hydro partition coefficient found [3] | time of peak (maximum) absorption [4] [h] | value (drug concentration in cell supernatant) ([4]; 0.5 h) [µg/mL] | value (drug concentration in cell supernatant) ([4]; 1 h) | value (drug concentration in cell supernatant) ([4]; 6 h) [µg/mL] | value (drug concentration in cell supernatant) ([4]; 12 h) [µg/mL] | value (drug concentration in cell supernatant) ([4]; 24 h) [µg/mL] | value (drug concentration in cell supernatant) ([4]; 48 h) [µg/mL] | maximum cell absorption rate relative to DAI [4] | absorptivity (maximum absorption rate) [4] [%] | metabolites found in cell lysate [5] | redox products in HAVSMCs [5] | melting point [°C] | solubility at 48 h [7] [µg/mL] | Compound | cell inhibition rate [6] | further results
– | – | – | – | – | – | – | – | – | – | – | – | – | – | – | – | – | – | – | O=C(O)COc1ccc(-c2coc3cc(OCCO)ccc3c2=O)cc1 [4-oxoacetic acid-7-hydroxyethoxy-daidzein] | – | solubility in water [1]: 54.28 µg/mL (≈ 152 µM)
824 ± 19.3 (≈ 1800 µM) | < 0.059 | too poor to be detected | < 0.059 | —^b | —^b | 1 | 96.97 ± 15.57 | 20.62 µg/mL and 20.62 ± 0.71 µg/mL | 110.70 ± 4.98 | 82.48 ± 3.00 | 71.01 ± 34.97 | 111.28 ± 1.72 | 4.3 times and 4.3–4.5 times | 87.97 | Four metabolites were found | no redox products | 144 to 156 | 509 ± 49 (≈ 1110 µM) | COc1ccc2c(=O)c(-c3ccc(OS(=O)(=O)c4ccc5ccccc5c4)cc3)coc2c1 [DD4] | less than 10% | solubility at 48 h ([2]; ethyl acetate, 37 °C, shaken 48 h, HPLC, read-out: solubility ethanoate (ethyl acetate)): 36300 µg/mL (≈ 79200 µM); metabolite identified (chemical name) [5]: daidzein-4'-naphthalene sulphonate
– | – | – | – | – | – | – | – | – | – | – | – | – | – | – | – | – | – | – | sodium daidzein sulphonate | – | anti-hypoxic-ischaemic effect [8]: obviously better than that of DAI
– | – | – | – | – | – | – | – | – | – | – | – | – | – | – | – | – | – | – | O=c1c(-c2ccc(O)cc2)coc2cc(O)ccc12 [DAI, 4′, 7-dihydroxyisoflavone] | – | solubility in ethyl acetate ([9]; Table 5, DAI ref 16): 0.13 ± 0.11 µg/mL (≈ 0.511 µM); solubility in cyclohexane ([9]; cyclohexane, DAI ref 14): could not be determined; solubility in water ([9]; water, DAI ref 14): too poor to be detected; lgP [10]: —^b; absolute bioavailability calculated on the basis of free DAI [11]: 12.8%; dissociation constant (percentage of drug prototypes) calculated value [12]: 10.41%; molecular polar surface area/two-dimensional calculated value [12]: 66.76 Å^2; molecular surface area/three-dimensional calculated value [12]: 315.07 Å^2; polarizability calculated value [12]: 26.21; refractivity calculated value [12]: 69.70; H-bond accepter site ([12]; first figure of site/count): 5; H-bond accepter count ([12]; second figure of site/count): 4
2470 ± 72.4 (≈ 5230 µM) | < 0.059 | too poor to be detected | < 0.059 | —^b | —^b | 1 | 88.31 ± 4.25 | 11.59 ± 0.08 µg/mL | 44.60 ± 3.91 | 47.13 ± 15.99 | 50.34 ± 1.31 | 29.29 ± 2.50 | 4.5 times and 4.3–4.5 times | 90.34 | Six metabolites were found | no redox products | 151 to 153 | 69.7 ± 20.8 (≈ 148 µM) | CCOc1ccc2c(=O)c(-c3ccc(OS(=O)(=O)c4ccc5ccccc5c4)cc3)coc2c1 [DD5] | less than 10% | metabolite identified (chemical name) ([5]; metabolite DAI): daidzein; metabolite identified (chemical name) ([5]; metabolite M2): daidzein-4'-naphthalene sulphonate; metabolite identified (chemical name) ([5]; metabolite M4 or/and M4a): daidzein-4'-glucoside or daidzein-7-glucoside; metabolite identified (chemical name) ([5]; metabolite M5): 7-ethyldaidzein; metabolite identified (chemical name) ([5]; metabolite M6): daidzein-7-ethyl-4'-glucoside; metabolite identified (chemical name) ([5]; metabolite M7): daidzein-7-ethyl-4'-sulphonic acid
